This note sets out measurements from article PMC3659552 (Journal of Ginseng Research, 2011).

In this test the target is AChE (acetylcholineserase). The experiment in a line: Ellman spectrophotometric assay, […] nm. Format: biochemical, Electrophorus electricus. The settings on record: acetylthiocholine iodide substrate; pH 8.0; 10 min preincubation. (In general: Ellman's reagent forms a yellow product with free thiols.)

Turning to `Nc1c2c(nc3ccccc13)CCCC2` [tacrine], the IC50 (as a rule, the point on the concentration scale where inhibition reaches its midpoint) stood at 825 nM.
